# In patent US20060128792A1, “Deguelin as a chemopreventive agent for lung cancer” (priority 2002, published 2006):
# Values joined by “and” are separate entries in the source; they are usually repeats but may differ in a detail not shown here. Identical values can stand only once.
# Tests used:
# NHBE = test: MTT assay, growth inhibition / viability of normal HBE cells; conditions: for Avg. % con / MTT value, mean of replicates (unheaded line) / MTT value, replicate (unheaded line): NHBE, 3 days
# Protocol: Cells and Cell Cultures. […] Normal HBE (NHBE) cells were purchased from Clontech (Palo Alto, Calif.). […] Cells were grown on tissue culture plasticware (Falcon; Bector, Dickinson, Bedford, Mass.) at 37° C. in a humidified atmosphere with 5% C02. For the analyses of growth inhibition, cell cycle, and induction of apoptosis by deguelin, NHBE cells, HBE cell lines, and squamous HBE cells were cultured in KSFM (Life Technologies) containing 2 μg/ml of EGF and bovine pitutary extract.
# Cell Treatment with Deguelin and Determination of Growth Inhibition. To measure the effects of deguelin on cell proliferation, NHBE, 1799 cells, 1198 cells, and 1170 cells were transferred onto 96-well plates at densities ranging from 2×10^3 to 4×10^3 cells/well. After 1 day, the cells were changed to the fresh medium containing various concentrations of deguelin dissolved in DMSO (final concentration, 0.1%). Control cultures received 0.1% dimethyl sulfoxide (DMSO) as did the deguelin-treated cultures. […] After 1 day of infection, cells were treated with 10^−7 M or 10^−6 M of deguelin, or 0.1% DMSO as a control, and then incubated for 2 days. […] Six replicate wells were used for each analysis.
# [1] = system: H1299 and squamous HBE cells; test: Apoptosis by flow cytometry (FACS); assay type: cell-based; conditions: 10^−7 M deguelin, by day 2 or day 3
# Protocol: Apoptosis assay. Normal, premalignant, and malignant HBE cells were exposed to v various doses of deguelin for 3 days. […] Both adherent and floating cells were combined for the assessment of apoptosis using the APO-BRDU staining kit (Phoenix Flow Systems, San Diego, Calif.). Briefly, floating and attached cells dispersed with trypsin-EDTA were pelleted, washed, and fixed by 1% paraformaldehyde followed by 70% ethanol. The fixed cells were washed and incubated with DNA-labeling solution containing terminal deoxynucleotidyl transferase (TdT) reaction buffer, TdT enzyme, and bromodeoxyuridine triphosphate (Br-dUTP). Cells were rinsed, resuspended with fluorescein-PRB-I antibody solution, and analyzed by flow cytometry in the presence of PI/RNase solution. […] A dual display of DNA area (linear red fluorescence) and Br-dUTP incorporation (FITC-PRB-1) was used to determine the percentage of apoptotic cells.
# The apoptotic effect of deguelin was further assessed in HBE cells. […] Apoptosis was analyzed by flow cytometry as described above. […] To confirm the apoptotic activity in these cells, bax and bcl-2 expression were analyzed by western blotting. […] Thus, it was determined that deguelin increases bax expression thereby inducing the apoptotic activity in lung cancer cells.
# NSCLC cells = test: MTT assay, growth inhibition of NSCLC cells by deguelin and deguelin derivatives (Table 2, FIG. 7); assay type: cell-based; conditions: 72 h, depending on the cell line, 3 days
# 1799 cells [2] = test: MTT assay, viability of 1799 cells (also after Ad5CMV-MyrAkt-HA infection); assay type: cell-based
# Description: Cells and Cell Cultures. […] Tumors developed 6 months later. […] (Klein-Szanto et al., 1992).
# Cal1 = test: MTT assay, growth inhibition by deguelin or deguelin derivatives; assay type: cell-based; conditions: 3 days
# [3] = system: pAkt (Ser473) and pGSK-3β (Ser9) in 1799 cells; test: Western blot of pAkt (Ser473) and pGSK-3β (Ser9); assay type: cell-based
# Protocol: Immunoblotting. Whole cell lysates were prepared in lysis buffer (50 mM N-[2-[…]]-piperazine-N′-[2-ethanesulfonic acid] [HEPES; pH 7.5], 150 mM NaCl, 1.5 mM MgCl2, ImM EDTA, 0.2 mM EGTA, 1% NP40, 10% glycerol, 1 mM dithiothreitol (DTT), 1 mM phenylmethylsulfonyl fluoride, 20 mM sodium fluoride, 5 mM sodium orthovanadate, 10 μg/ml aprotinin, 10 μg/ml leupeptin, 2 μg/ml pepstatin, and 1 mM benzamidine) as described previously (Lee et al., 2002). Equivalent protein concentrations were resolved in sodium dodecyl sulfate-polyacrylamide gels and transferred to a nitrocellulose membrane. After the blocking of transblotted membrane in Tris-buffered saline (TBS) containing 0.05% Tween 20 (TBST) and 5% low fat milk, themembrane was incubated with primary antibody at the appropriate dilution in TBS-5% low-fat milk at 4° C. for 16 h and washed with TBST. The immunoblots were visualized using the ECL kit (Amersham, Inc., Arlington Heights, III) according to the manufacturer's directions. Rabbit polyclonal antibodies against human pAkt (Ser473), Akt, and pGSK-3β (Ser9), and mouse monoclonal antibody against human anti-pMAPK (Thr202/Tyr204) were purchased from Cell Signalinng Technology (Beverly, Mass.). […]
# [4] = system: cell line not named (Table 1); test: MTT assay, growth inhibition by deguelin; assay type: cell-based; conditions: 3 days
# 1799 cells [5] = test: Cell cycle analysis by flow cytometry (propidium iodide); assay type: cell-based; conditions: 3 days
# Protocol: (§1) Cell Cycle Analysis. Cells were plated on 10-cm dishes 1 day before treatment. After treatment with deguelin for 3 days, floating and adherent cells were harvested by trypsinization, fixed with 1% paraformaldehyde and 70% ethanol, stained with propidium iodide PI), and subjected to flow cytomnetric analysis to determine the percentages of cells in specific phases of the cell cycle (G1, S, and G2/M) as described previously (Sun et al., 1997).
# NHBE cells = test: as above; assay type: cell-based; conditions: 3 days
# Protocol: as §1
# H1299 = test: MTT assay, growth inhibition by deguelin or deguelin derivatives; assay type: cell-based; conditions: H1299, 3 days
structure (smiles),measurement,setting,value
COc1cc2c(cc1OC)[C@@H]1C(=O)c3ccc4c(c3O[C@@H]1CO2)C=CC(C)(C)O4 [Deguelin],effect on NHBE viability,"NHBE; MTT assay, 10^−9 M to 10^−7 M, up to 3 days",minimal effect
same,Avg. % con,NHBE; deguelin 10^−6M,0.23 % con
same,"MTT value, mean of replicates (unheaded line)",NHBE; deguelin 10^−6M,0.099
same,"MTT value, replicate (unheaded line)",NHBE; deguelin 10^−6M,0.129 and 0.082 and 0.087
same,Avg. % con,NHBE; deguelin 10^−8M,0.53 % con
same,"MTT value, mean of replicates (unheaded line)",NHBE; deguelin 10^−8M,0.229
same,"MTT value, replicate (unheaded line)",NHBE; deguelin 10^−8M,0.249 and 0.227 and 0.21
same,Avg. % con,NHBE; deguelin 10^−10M,0.81 % con
same,"MTT value, mean of replicates (unheaded line)",NHBE; deguelin 10^−10M,0.347
same,"MTT value, replicate (unheaded line)",NHBE; deguelin 10^−10M,0.355 and 0.341 and 0.346
same,Avg. % con,NHBE; deguelin 10^−12M,0.90 % con
same,"MTT value, mean of replicates (unheaded line)",NHBE; deguelin 10^−12M,0.386
same,"MTT value, replicate (unheaded line)",NHBE; deguelin 10^−12M,0.417 and 0.365 and 0.377
same,apoptosis (flow cytometry),[1],≥ 60%
same,IC50,NSCLC cells,100 to 1000 nM
same,viable number of 1799 cells,"1799 cells [2]; 1 day, concentration as low as 10^−9 M",reduced
same,viability at 0.1 µM,"1799 cells [2]; 48 h, 10^−7 M deguelin, 2 days, read-out: viable cells, 1799 cells infected with 5×10^3 particles/cell Ad5CMV-Myr.Akt.HA",> 80%
same,Avg. % con,Cal1; deguelin 10^−6M,0.54 % con
same,"MTT value, mean of replicates (unheaded line)",Cal1; deguelin 10^−6M,0.132
same,"MTT value, replicate (unheaded line)",Cal1; deguelin 10^−6M,0.13 and 0.128 and 0.138
same,Avg. % con,Cal1; deguelin 10^−8M,0.88 % con
same,"MTT value, mean of replicates (unheaded line)",Cal1; deguelin 10^−8M,0.214
same,"MTT value, replicate (unheaded line)",Cal1; deguelin 10^−8M,0.204 and 0.221 and 0.216
same,Avg. % con,Cal1; deguelin 10^−10M,1.16 % con
same,"MTT value, mean of replicates (unheaded line)",Cal1; deguelin 10^−10M,0.281
same,"MTT value, replicate (unheaded line)",Cal1; deguelin 10^−10M,0.29 and 0.294 and 0.26
same,Avg. % con,Cal1; deguelin 10^−12M,1.30 % con
same,"MTT value, mean of replicates (unheaded line)",Cal1; deguelin 10^−12M,0.317
same,"MTT value, replicate (unheaded line)",Cal1; deguelin 10^−12M,0.305 and 0.328 and 0.319
same,"pAkt level, time course",[3]; 10^−7 M deguelin,reduced after 7 h of treatment and was virtually undetectable after 14 h
same,levels of pAkt (Ser473) and pGSK-3β (Ser9),"[3]; time-dependent, Akt, GSK-3α/β and β-Actin not affected",decreased
same,Avg. % con,[4]; deguelin 10^−6M,0.82 % con
same,"MTT value, mean of replicates (unheaded line)",[4]; deguelin 10^−6M,0.304
same,"MTT value, replicate (unheaded line)",[4]; deguelin 10^−6M,0.306 (2×) and 0.299 and 0.305
same,Avg. % con,[4]; deguelin 10^−8M,0.78 % con
same,"MTT value, mean of replicates (unheaded line)",[4]; deguelin 10^−8M,0.2908
same,"MTT value, replicate (unheaded line)",[4]; deguelin 10^−8M,0.288 and 0.291 and 0.283 and 0.301
same,Avg. % con,[4]; deguelin 10^−10M,0.90 % con
same,"MTT value, mean of replicates (unheaded line)",[4]; deguelin 10^−10M,0.3348
same,"MTT value, replicate (unheaded line)",[4]; deguelin 10^−10M,0.337 and 0.327 and 0.343 and 0.332
same,Avg. % con,[4]; deguelin 10^−12M,1.01 % con
same,"MTT value, mean of replicates (unheaded line)",[4]; deguelin 10^−12M,0.3768
same,"MTT value, replicate (unheaded line)",[4]; deguelin 10^−12M,0.392 and 0.386 and 0.367 and 0.362
same,1799 cells accumulated at the G2/M phase,1799 cells [5]; 10^−7 M deguelin,40.2%
same,1799 cells accumulated at the G2/M phase,1799 cells [5]; 10^−8 M deguelin,17.3%
same,change in NHBE cell cycle,NHBE cells,did not induce detectable change
same,Avg. % con,H1299; deguelin 10^−6M,0.36 % con
same,"MTT value, mean of replicates (unheaded line)",H1299; deguelin 10^−6M,0.048
same,"MTT value, replicate (unheaded line)",H1299; deguelin 10^−6M,0.052 and 0.043 and 0.049
same,Avg. % con,H1299; deguelin 10^−8M,0.78 % con
same,"MTT value, mean of replicates (unheaded line)",H1299; deguelin 10^−8M,0.104
same,"MTT value, replicate (unheaded line)",H1299; deguelin 10^−8M,0.101 and 0.108 and 0.103
same,Avg. % con,H1299; deguelin 10^−10M,0.73 % con
same,"MTT value, mean of replicates (unheaded line)",H1299; deguelin 10^−10M,0.098
same,"MTT value, replicate (unheaded line)",H1299; deguelin 10^−10M,0.119 and 0.087 and 0.089
same,Avg. % con,H1299; deguelin 10^−12M,0.98 % con
same,"MTT value, mean of replicates (unheaded line)",H1299; deguelin 10^−12M,0.132
same,"MTT value, replicate (unheaded line)",H1299; deguelin 10^−12M,0.121 and 0.136 and 0.138
